Results on 2 compounds are retold here after patent publication US7563794B2, “Ziprasidone free from colored impurities and a process for its preparation” (Dipharma Francis S.r.l., priority 2005, dated 2009).

For data set [1] the following is noted: cited from earlier work.
For data set [2] the following is noted: particles having diameter lower than or equal to 85 μm, aqueous solutions at physiological pH, EP 965 343; cited from earlier work.
For data set [3] the following is noted: reported by EP 965 343; cited from earlier work.
Data set [4] is described as follows: water solubility. In kind it is physicochemical. The note with it: particles having mean diameter D[4,3] higher than 85 μm.
For data set [5] the following is noted: cited from earlier work. This is another data set of the same source.
Data set [6] can be described thus: hygroscopicity / absorption of atmospheric humidity (water content by Karl-Fischer). The class given is physicochemical. To be noted: particles having mean diameter D[4,3] higher than 85 μm (150 μm vs known 50 μm sample, 25° C., 50% relative humidity, FIG. 2). As to the method:
The samples water content was determined by the known Karl—Fischer technique. “Approximatively” and “about” herein mean around ±10% of the indicated value.

Read-outs that look alike come from different tables or passages of the source.

Take `Cl.O=C1Cc2cc(CCN3CCN(c4nsc5ccccc45)CC3)c(Cl)cc2N1` [ziprasidone hydrochloride, 5-(2-(4-(1,2-benzisothiazol-3-yl)-1-piperazinyl)-ethyl)-6-chloro-1,3-dihydro-2H-indol-2-one hydrochloride]: in data set [1], the “permeability through biological membranes” value is on record as “high permeability”. For the same compound, the “amount of the compound that dissolves within 45 minutes” value in data set [2] is recorded as “at least 70%”. For the same compound, the water solubility entry in data set [3] is “sparingly water-soluble”.

For the compound `Cl.O=C1Cc2cc(CCN3CCN(c4nsc5ccccc45)CC3)c(Cl)cc2N1` [anhydrous ziprasidone hydrochloride], in data set [4], the water solubility result is reported as “substantially unchanged”. Also, the hygroscopicity entry in data set [5] (exposed to air, spontaneously converts to the hydrate form) is “highly hygroscopic”; in data set [5] (particles with diameter lower than or equal to 85 μm), “high hygroscopicity”. The “resistance to absorption of atmospheric humidity” value is “higher resistance to the absorption of atmospheric humidity” in data set [6] (listed as Anhydrous ziprasidone hydrochloride) and “improved resistance to atmospheric humidity” in data set [6] (hydrochloride).
